Measured values from ChEMBL document CHEMBL4145564, “NAD(P)H:Quinone Oxidoreductase 1 (NQO1) as a Therapeutic and Diagnostic Target in Cancer” (J Med Chem, 2018).
Each block holds one compound with its values, some of them ahead of it.

Experiments:
Homo sapiens = assay: Toxicity in iv dosed human assessed as maximum tolerated dose administered as infusion; type: organism-based; details: in vivo
[1] = biological target: T1, NAD(P)H dehydrogenase [quinone] 1 (Homo sapiens, UniProt P15559); assay: Inhibition of recombinant human NQO1 in presence of NADPH measured at 2 sec intervals for 5 mins
[2] = Half life in athymic nude mouse blood; type: ADME, organism-based
[3] = biological target: T2, NAD(P)H dehydrogenase [quinone] 1 (Rattus norvegicus, UniProt P05982); assay: Competitive binding affinity to rat liver NQO1 in presence of NADPH
T2 sequence (P05982 whole entry): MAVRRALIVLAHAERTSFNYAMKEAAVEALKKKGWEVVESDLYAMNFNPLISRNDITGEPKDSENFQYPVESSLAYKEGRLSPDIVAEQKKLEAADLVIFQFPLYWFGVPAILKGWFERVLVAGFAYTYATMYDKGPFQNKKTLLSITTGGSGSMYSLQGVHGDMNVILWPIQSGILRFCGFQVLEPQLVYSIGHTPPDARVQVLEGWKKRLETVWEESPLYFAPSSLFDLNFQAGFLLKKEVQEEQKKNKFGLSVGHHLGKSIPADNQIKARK

[4] = biological target: T1, NAD(P)H dehydrogenase [quinone] 1; assay: Inactivation of recombinant human NQO1 expressed in Escherichia coli using DCPIP as substrate assessed as rate of reduction of DCPIP by spectrophotometric analysis
[5] = biological target: T1, NAD(P)H dehydrogenase [quinone] 1; assay: Inhibition of recombinant human NQO1 expressed in Escherichia coli using DCPIP as substrate assessed as rate of reduction of DCPIP in presence of NADH after 5 mins by spectrophotometric analysis
[6] = biological target: T1, NAD(P)H dehydrogenase [quinone] 1; assay: Inactivation of recombinant human NQO1 expressed in Escherichia coli using DCPIP as substrate assessed as partition ratio up to 200 nM by spectrophotometric analysis

SMILES: CC1=C(N2CC2)C(=O)C(CO)=C(N2CC2)C1=O
MTD (Homo sapiens): 1430 ug/m2/day

IC50 [1]: 1470 nM
SMILES: S=C(Cc1ccc2c3c([nH]c2c1)CCCC3)N1CCOCC1

half-life [2]: 24 min
SMILES: CC1(C)CCC2=C(O1)c1ccccc1C(=O)C2=O [LAPACHONE]

Ki [3]: 1 to 10 nM
SMILES: O=c1oc2ccccc2c(O)c1Cc1c(O)c2ccccc2oc1=O [DICUMAROL]

Kinact [4]: 0.78 min⁻¹
Ki [5]: 450 nM
Ratio [6]: 1.4
SMILES: COC1=CC(=O)c2c(c(COc3ccc([N+](=O)[O-])cc3)c(C)n2C)C1=O

IC50 [1]: 2040 nM
SMILES: CN1C(=O)C(O)(CC(=O)c2cc3c4c(cccc4c2)CC3)c2ccccc21 (stereo not drawn)
